{"source": "patent US20240382401A1", "about": "“COMPOSITIONS” (JVS Products Limited, priority 2020, published 2024)", "test_system": "tissue engineered human skin model (EpiDerm™)", "assay": "In vitro skin irritation test, EpiDerm (EPI-200-SIT), MTT assay", "assay_type": "cell-based", "details": "60 minutes exposure, relative to negative control, irritant if below 50%", "description": "A 24 tissue insert EpiDerm™ skin irritation kit was purchased from MatTek In Vitro Life Science Laboratories, Slovakia (EPI-200-SIT). On receipt of the kit, the tissues were visually assessed for integrity and conditioned by transferring into sterile 6 well plates, adding 0.9 ml medium and incubating for 60 minutes at 37° C., 5% CO2, 95% RH. After 60 minutes, the tissues were removed, placed in fresh medium and further incubated for 18 hours.\nTo test for irritancy potential, 30 μl of liquid formulation, plus positive and negative control or 25 mg semisolid (gel/moisturiser) were applied to surface of each test tissue insert. After dosing the inserts were incubated for 35 minutes (37° C., 5% CO2, 95% RH). […]\nOnce extraction was complete, 200 μl samples from each tissue were added to a 96 well plate in duplicate for the MTT assay of cell viability, and 200 μl isopropanol to 4 wells as blanks. The optical density of each well was read using a spectrophotometric plate reader at 570 nm without using a reference filter.\nThe mean OD (optical density) from the blank wells was subtracted from the OD of each well. The mean OD from each duplicate was then obtained and the individual relative tissue viability for each tissue treated with a test substance (TS), the positive control (PC) and the negative control (NC) calculated according to the following formulas: […]", "data": [{"smiles": "CCCCCCCCCCCCOS(=O)(=O)[O-].[Na+]", "note": "[5% SDS]", "values": [{"measurement": "Mean RV % (relative viability)", "result": 9.0, "unit": "%"}]}]}
